Reference: the supplement of paper PMC8149375

Key:
Settings in all cases: treatment: drug + dasatinib (fixed dose, not stated); 5 days
[1] = test system: 769-P; experiment: GI50 of drug in presence of dasatinib; higher = less potent
Method: (§1)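 Primary HTS combination arm: 8 RCC cell lines treated with 8 doses (up to 10 uM) of each library drug plus a fixed dose of dasatinib (dose not stated) for 5 days; viability read by CellTiter-Glo and normalised to DMSO. GI50 was fitted with XLfit, AUC is the area under the dose-response curve, and minimum viability is the lowest fraction of DMSO viability across doses.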

[2] = test system: 786-O; experiment: as above
Method: as §1

[3] = test system: A498; experiment: as above
Method: as §1

[4] = test system: CAKI-1; experiment: as above
Method: as §1

[5] = test system: SN12C; experiment: as above
Method: as §1

[6] = test system: TK-10; experiment: as above
Method: as §1

[7] = test system: UO-31; experiment: as above
Method: as §1

[8] = test system: 769-P; experiment: minimum viability across doses, drug + dasatinib, relative to DMSO (fraction); higher = less growth inhibition
Method: as §1

[9] = test system: 786-O; experiment: as above
Method: as §1

[10] = test system: A498; experiment: as above
Method: as §1

[11] = test system: ACHN; experiment: as above
Method: as §1

[12] = test system: CAKI-1; experiment: as above
Method: as §1

[13] = test system: SN12C; experiment: as above
Method: as §1

[14] = test system: TK-10; experiment: as above
Method: as §1

[15] = test system: UO-31; experiment: as above
Method: as §1

[16] = test system: 769-P; experiment: AUC of dose-response viability curve, drug + dasatinib, normalised to DMSO (arbitrary (AUC of normalised viability)); higher = less growth inhibition
Method: as §1

[17] = test system: 786-O; experiment: as above
Method: as §1

[18] = test system: A498; experiment: as above
Method: as §1

[19] = test system: ACHN; experiment: as above
Method: as §1

[20] = test system: CAKI-1; experiment: as above
Method: as §1

[21] = test system: SN12C; experiment: as above
Method: as §1

[22] = test system: TK-10; experiment: as above
Method: as §1

[23] = test system: UO-31; experiment: as above
Method: as §1

Row | Compound | GI50 of drug [1] | GI50 of drug [2] | GI50 of drug [3] | GI50 of drug [4] | GI50 of drug [5] | GI50 of drug [6] | GI50 of drug [7] | minimum viability across doses [8] | minimum viability across doses [9] | minimum viability across doses [10] | minimum viability across doses [11] | minimum viability across doses [12] | minimum viability across doses [13] | minimum viability across doses [14] | minimum viability across doses [15] | AUC of dose-response viability curve [16] | AUC of dose-response viability curve [17] | AUC of dose-response viability curve [18] | AUC of dose-response viability curve [19] | AUC of dose-response viability curve [20] | AUC of dose-response viability curve [21] | AUC of dose-response viability curve [22] | AUC of dose-response viability curve [23]
1 | NC(=O)c1ccc(N(C(N)=O)c2c(F)cccc2F)nc1-c1ccc(F)cc1F [VX-702] + Cc1nc(Nc2ncc(C(=O)Nc3c(C)cccc3Cl)s2)cc(N2CCN(CCO)CC2)n1 [dasatinib] | > 10 µM | > 10 µM | > 10 µM | > 10 µM | > 10 µM | > 10 µM | > 10 µM | 0.627 | 0.547 | 0.887 | 0.409 | 0.649 | 0.685 | 0.598 | 1.12 | 2.4 | 2.23 | 3.52 | 1.87 | 2.43 | 2.54 | 2.39 | 4.36
2 | Cc1ccc(-n2nc(C(C)(C)C)cc2NC(=O)Nc2ccc(OCCN3CCOCC3)c3ccccc23)cc1 [BIRB 796 (Doramapimod)] + Cc1nc(Nc2ncc(C(=O)Nc3c(C)cccc3Cl)s2)cc(N2CCN(CCO)CC2)n1 [dasatinib] | > 10 µM | > 10 µM | > 10 µM | > 10 µM | > 10 µM | > 10 µM | > 10 µM | 0.537 | 0.639 | 0.755 | 0.439 | 0.567 | 0.659 | 0.66 | 0.946 | 2.29 | 2.63 | 3.07 | 1.78 | 2.29 | 2.4 | 2.49 | 3.79
3 | Cc1ccccc1-n1c(Cn2cnc3c(N)ncnc32)nc2cccc(C)c2c1=O + Cc1nc(Nc2ncc(C(=O)Nc3c(C)cccc3Cl)s2)cc(N2CCN(CCO)CC2)n1 [dasatinib] | > 10 µM | 5.69 µM | > 10 µM | > 10 µM | > 10 µM | > 10 µM | > 10 µM | 0.612 | 0.444 | 0.859 | 0.443 | 0.516 | 0.695 | 0.651 | 0.738 | 2.4 | 1.98 | 3.27 | 1.87 | 2.28 | 2.53 | 2.49 | 3.34
4 | C[C@@H]1CCN(C(=O)CC#N)C[C@@H]1N(C)c1ncnc2[nH]ccc12 + Cc1nc(Nc2ncc(C(=O)Nc3c(C)cccc3Cl)s2)cc(N2CCN(CCO)CC2)n1 [dasatinib] | > 10 µM | > 10 µM | > 10 µM | > 10 µM | > 10 µM | > 10 µM | > 10 µM | 0.664 | 0.743 | 1 | 0.363 | 0.685 | 0.695 | 0.7 | 1.23 | 2.6 | 3.03 | 3.91 | 1.62 | 2.53 | 2.51 | 2.59 | 4.82
5 | O=C1NC(=O)/C(=C/c2ccc3nccnc3c2)S1 + Cc1nc(Nc2ncc(C(=O)Nc3c(C)cccc3Cl)s2)cc(N2CCN(CCO)CC2)n1 [dasatinib] | 8.39 µM | 1.55 µM | > 10 µM | 4.25 µM | > 10 µM | > 10 µM | > 10 µM | 0.491 | 0.464 | 0.781 | 0.479 | 0.343 | 0.704 | 0.64 | 0.879 | 2.33 | 2.15 | 3.09 | 2.01 | 2.23 | 2.56 | 2.57 | 3.46
6 | OCCn1cc(-c2cnc3nnn(Cc4ccc5ncccc5c4)c3n2)cn1 + Cc1nc(Nc2ncc(C(=O)Nc3c(C)cccc3Cl)s2)cc(N2CCN(CCO)CC2)n1 [dasatinib] | > 10 µM | > 10 µM | > 10 µM | – | > 10 µM | > 10 µM | > 10 µM | 0.651 | 0.702 | 0.872 | 0.448 | 0.408 | 0.614 | 0.688 | 0.926 | 2.44 | 2.79 | 3.25 | 1.77 | 2.02 | 2.32 | 2.57 | 3.41
7 | COc1ccc2c(c1OC)N=C(NC(=O)c1cccnc1)N1CCN=C21 [PIK-90] + Cc1nc(Nc2ncc(C(=O)Nc3c(C)cccc3Cl)s2)cc(N2CCN(CCO)CC2)n1 [dasatinib] | 1.48 µM | – | > 10 µM | 0.424 µM | 2.26 µM | > 10 µM | 3.82 µM | 0.268 | 0.388 | 0.762 | 0.235 | 0.136 | 0.52 | 0.552 | 0.434 | 2.03 | 1.76 | 3.11 | 1.7 | 1.82 | 2.21 | 2.3 | 2.69
8 | O=C1Nc2ccccc2/C1=C1/Nc2ccccc2C1=O [Indirubin] + Cc1nc(Nc2ncc(C(=O)Nc3c(C)cccc3Cl)s2)cc(N2CCN(CCO)CC2)n1 [dasatinib] | > 10 µM | – | > 10 µM | > 10 µM | > 10 µM | > 10 µM | > 10 µM | 0.632 | 0.394 | 0.941 | 0.435 | 0.497 | 0.624 | 0.593 | 0.799 | 2.38 | 1.76 | 3.41 | 1.65 | 2.02 | 2.36 | 2.48 | 3.15
